This is an account of results in US5192668A, “Synthesis of protease inhibitor” (Merck & Co., Inc., priority 1992, dated 1993).

Structures are written as SMILES.

The target of the assay is T1, HIV protease (Human immunodeficiency virus type 1 group M subtype B, UniProt P12497).
T1 construct: HIV protease expressed in Escherichia coli; made in house; host or cells: Escherichia coli
Put plainly: Assay for Inhibition of Recombinant HIV Protease (APRIN 2.1). It is filed as biochemical. The following applies: Conc. 1 ng/ml; read-out: APRIN 2.1 Act. (% Inhib.). As for the experimental part:
Assay for Inhibition of Recombinant HIV Protease (APRIN 2.1)
Inhibition studies were performed on the reaction of the HIV protease expressed in Escherichia coli with a tritiated peptide substrate, [^3 H]-acetyl-Val-Ser-Gln-Asn-(beta-napthyl-Ala)-Pro-Ile-Val-Gln-Gly-Arg -Arg-NH2 (MW 1800). The two arginine residues at the carboxyl terminus give this peptide an overall positive charge at acidic pH and enable it to bind to the H^+ form of DOWEX AG-50W-X8 resin and similar resins.
Aliquots of 25 μl containing 6.0-8.0 nM HIV protease in assay buffer (100 mM sodium acetate, pH 5.5 and 0.1% BSA) are placed in assay tubes. The reaction is initiated by addition of 25 μl aliquots of 4.2 μM tritiated peptide substrate in 100 mM sodium acetate, pH 5.5. After incubation for 60 min at 37° C., the reaction is stopped with 100 μl of 5% H3 PO4, then analysed by application of column chromatography.

Take `CC(C)(C)OC(=O)N[C@@H](Cc1ccccc1)[C@@H](O)C[C@@H](Cc1ccc(OCC(=O)O)cc1)C(=O)N[C@H]1c2ccccc2C[C@H]1O` [L-694,746]: the inhibition at 0.001 µg/mL was found to be 88%.
